Results published in publication PMC12029898, “Cellular Metabolomics Reveals Differences in the Scope of Liver Protection Between Ammonium-Based Glycyrrhizinate and Magnesium Isoglycyrrhizinate” (Metabolites, 2025).

How the values were obtained:
LO2 cells [1] = assay: Cell viability of LO2 cells exposed to APAP (MTT), liver injury model; assay type: cell-based, human
Method: Cell culture and model construction: The experimental LO2 cells were provided by Shanghai Fuheng Biotechnology Co., Ltd. (Shanghai, China). Cells induced by APAP formed a cell model of liver injury. The cells were cultured in RPMI 1640 medium containing 100 units of penicillin, 100 μg/mL streptomycin, and 10% FBS at 37 °C and 5% CO2 atmosphere. The cells were changed daily and passaged when the contact reached 80%. Cells in the logarithmic growth phase were seeded onto a 96-well plate at a density of 4000 cells per well and subsequently incubated at 37 °C in an atmosphere containing 5% CO2. After 24 h of pre-incubation, cells were exposed to APAP at concentrations of 2, 4, 8, and 16 mM, followed by continued culture for the designated time periods. Subsequently, 20 μL of MTT solution (5 mg/mL, dissolved in PBS) was added to each well and incubated for an additional 4 h at 37 °C. To dissolve the formed formazan crystals, 200 μL of DMSO was added. The absorbance values were then measured at 490 nm using a microplate reader ([sequence] 200 PRO, Tecan, Männedorf, Switzerland). The cell survival rates at different APAP concentrations were calculated, and a cell survival rate below 60% was considered indicative of successful model construction. The specific formula employed for calculating the cell survival rate is provided below. […] Cell viability=AAPAP−ABlank/AControl−ABlank

[2] = Pharmacokinetics after oral gavage in rats (plasma, HPLC); assay type: in vivo, Sprague Dawley rats; details: male, Sprague Dawley, rat, po, 20 mg/kg
From the text: Nine male Sprague Dawley rats, each weighing approximately 250 g ± 25 g, were meticulously selected as the experimental subjects (sourced from Beijing SPF Biotechnology Co., Ltd., (Beijing, China) SPF grade, licensed under SCXK (Jing) 2019-0010). The experimental protocol was approved by the Institutional Animal Care and Use Committee of Hebei Medical University and conformed to the Guide for Care and Use of Laboratory Animals (approval NO. 2023040). Prior to and throughout the experimental period, the rats were provided with unrestricted access to standard rodent chow and water. The housing facilities for these animals adhered strictly to the standards outlined by the International Association for the Evaluation and Certification of Laboratory Animal Care, ensuring optimal conditions for the animals’ wellbeing. The experimental feeding environment was maintained at a temperature of 22–24 °C, with a relative humidity of 50 ± 5%, and a 12-h light/dark cycle to mimic natural diurnal rhythms. The rats were randomly allocated into three distinct groups, with an equal distribution of three rats per group. MONO, DIAM, and MAGN were administered orally at a dose of 20 mg/kg. The amount administered was calculated as the contents of glycyrrhizinate or magnesium isoglycyrrhizinate. Each compound was dissolved in 0.5% carboxymethylcellulose sodium (CMC-Na) solution and delivered immediately to rats via gastric gavage. Blood samples of 0.2 mL were obtained at various time points post-administration (0.5, 1, 2, 4, 8, 12, 24, and 48 h) and centrifuged at 1500× g for 10 min at 4 °C, allowing for the separation of plasma, which was collected and stored at −20 °C for subsequent analysis.
Fifty microliters (50 μL) of plasma was obtained and spiked with 10 μL of dipyridamole solution as an internal standard. Subsequently, 100 μL of acetonitrile was added to precipitate the proteins, followed by vortex mixing. The mixture was centrifuged at 6000× g for 10 min at 4 °C. The resulting precipitate was discarded, and the supernatant was evaporated to dryness under a nitrogen stream at 60 °C. The residual precipitate was redissolved in 200 μL of mobile phase, vortexed for 5 min, and sonicated for 30 s. Following this, the solution was centrifuged again at 6000× g for 10 min at 4 °C. Then, 10 μL of the supernatant was injected and the chromatogram was recorded for analysis.
HPLC was employed using the Agilent 1200 series system (Agilent Technologies, Wilmington, DE, USA) with Agilent Chemstation LC B.04.03 Software. The separation was on a Venusil MP C18(2) chromatographic column (150 × 4.6 mm, 5 μm, Agela Technologies, Tianjin, China) based on the United States Pharmacopeia with adjustments performed. Isocratic elution with a mixture of 40 volumes of acetonitrile and 60 volumes of water (containing 0.5% acetic acid) was used. The flow rate and temperature were 1.0 mL/min and 40 °C, respectively. A volume of 10 μL of the sample was injected under 254 nm for analyses and with three repetitions for each test (n = 3). All the pharmacokinetic data were calculated by Drug and Statistics (DAS) 2.0 software (Mathematical Pharmacology Professional Committee of China, Shanghai, China) and presented as mean ± SD. The main parameters such as the area under the curve (AUC), the maximum plasma concentration (Cmax), the time to Cmax (Tmax), and elimination half-life (t1/2) were tabulated.

LO2 cells [3] = assay: Hepatocyte protection rate in APAP-induced LO2 cells (MTT); assay type: cell-based, human; details: 16 mM APAP, 200, 400 and 600 μM
Method: Assessment of hepatocyte-protective effects: Cells in the logarithmic growth phase were seeded onto a 96-well plate at a density of 4000 cells per well, followed by incubation at 37 °C in an atmosphere containing 5% CO2. After 24 h of incubation, cells were treated with 16 mM APAP, followed by the addition of MONO, DIAM, and MAGN at three escalating concentrations (200, 400, and 600 μM for each compound). The cell survival rate was quantitatively evaluated using MTT method. The protective efficacy of the compounds was then calculated employing the formula outlined below.(1) Hepatocytes protection rate=AGlycyrrhizinate−AAPAP/Anormal−AAPAP×1

SMILES | cytotoxicity towards LO2 cells (LO2 cells [1]; APAP 2-16 mM) | cell survival rate (LO2 cells [1]; APAP concentrations exceeding 16 mM, 24 h of APAP exposure) | half-life ([2]; n = 3) | AUC(0-t) ([2]; n = 3, read-out: AUC0-t) | Cmax ([2]; n = 3, read-out: Cmax) | Tmax ([2]; n = 3, read-out: Tmax) | hepatocyte protection (therapeutic effect) (LO2 cells [3])
CC(=O)Nc1ccc(O)cc1 [APAP, acetaminophen] | concentration-dependent cytotoxicity | below 60% |  |  |  |  | 
CC1(C)[C@@H](O[C@H]2O[C@H](C(=O)O)[C@@H](O)[C@H](O)[C@H]2O[C@@H]2O[C@H](C(=O)O)[C@@H](O)[C@H](O)[C@H]2O)CC[C@]2(C)[C@H]3C(=O)C=C4[C@@H]5C[C@@](C)(C(=O)O)CC[C@]5(C)CC[C@@]4(C)[C@]3(C)CC[C@@H]12 [MONO, monoammonium glycyrrhizinate] |  |  | 10.8 ± 0.66 h | 320 ± 78.6 µg·h/mL | 15000 ± 3640 ng/mL | 8 h | concentration-dependent therapeutic effects
